Data: patent publication US5686486A, “4-hydroxy-benzopyran-2-ones and 4-hydroxy-cycloalkyl[b]pyran-2-ones useful to treat retroviral infections” (priority 1995, dated 1997)
pIC50: −log10 of the molar value. Values joined by “and” are separate entries in the source; they are usually repeats but may differ in a detail not shown here. Equal entries are not always repeated. Structures can show the parent of a compound that is named as a salt. Where two headings read alike, the source gives them in different places.

Target: HIV-1 protease (Human immunodeficiency virus type 1 group M subtype B, UniProt P04585)
Experiment: biochemical
Details: for pIC50: HIV-1 Protease IC50; for inhibition at 1 µM: read-out: HIV-1 Protease % Inhib, dose 1.000 uM; for inhibition at 100 µM: read-out: HIV-1 Protease % Inhib, dose 100.000 uM; for inhibition at 0.123 µM: read-out: HIV-1 Protease % Inhib, dose 0.123 uM; for inhibition at 0.37 µM: read-out: HIV-1 Protease % Inhib, dose 0.370 uM
Protocol: The HIV protease screening assay is based on fluorescently labeled substrate which can be resolved from nonlabeled cleavage product using special beads coated with streptavidin. The substrate is biotinylated at the amino terminal arginine and fluorescently labeled with fluorescein isothiocynate (FITC) at the carboxyl terminal lysine. This assay has been employed to detect novel, nonpeptidic inhibitors of HIV-1 protease. Substrate (20 μl of 0.2 μM), sample (10 μl of desired concentration), and enzyme (10 μl of 0.1 μM) are added to a 96 well pandex plate. The assay is run in 0.1M sodium acetate buffer at pH 5.5 in the presence of 1.0M sodium chloride and 0.05% NP-40 with incubated in the dark for one hour at room temperature. Strepavidin coated polystyrene beads {40 μl of 0.1% (w/v)} are added and the plate is incubated in the dark for an additional half hour. The labeled cleavage product is separated from the unreacted substrate via filtration and is read on the Idexx screen machine. The data are analyzed by appropriate computer algorithms to ascertain percent inhibition values.

[1] = read-out: HIV-1 Protease % Inhib, dose 10.000 uM
[2] = read-out: HIV-1 Protease % Inhib, dose 1.100 uM
[3] = read-out: HIV-1 Protease % Inhib, dose 3.300 uM
[4] = read-out: HIV-1 Protease % Inhib, dose 30.000 uM
[5] = dose 3.300 uM, read-out: HIV-1 Protease % Inhib
[6] = dose 10.000 uM, read-out: HIV-1 Protease % Inhib
[7] = dose 30.000 uM, read-out: HIV-1 Protease % Inhib
[8] = dose 1.100 uM, read-out: HIV-1 Protease % Inhib

Structure (SMILES) | inhibition at 1 µM | inhibition at 10 µM [1] | inhibition at 100 µM | inhibition at 0.123 µM | inhibition at 0.37 µM | inhibition at 1.1 µM [2] | inhibition at 3.3 µM [3] | inhibition at 30 µM [4] | also measured
CCC(c1cccc(NC(=O)CCNC(=O)OC(C)(C)C)c1)c1c(O)c2ccccc2oc1=O (stereo not drawn) [Example 23, 4-Hydroxy-3-[1-[3-[[3-[(1,1-dimethylethoxycarbonyl)amino]-1-oxopropyl]amino]phenyl]propyl]-coumarin] | 46.6% | 96.6% | 104% |  |  |  |  |  | pIC50: 6.18 and 6.15; HIV-1 Protease % Inhib (dose 100.000 uM): 104.2%
CCC(c1cccc(NC(=O)CCN)c1)c1c(O)c2ccccc2oc1=O (stereo not drawn) [Example 24, 3-[1-[3-[(3-Amino-1-oxopropyl)amino]phenyl]propyl]-4-hydroxy-coumarin, trifluoroacetate (salt)] | < 10% | 24.2% | 83.7% |  |  |  |  |  | 
O=c1oc2ccccc2c(O)c1C(Cc1ccccc1)c1ccccc1 (stereo not drawn) [Example 13, 3-(1,2-Diphenylethyl)4-hydroxycoumarin] | < 10% | 34.7% | 74.6% |  |  |  |  |  | 
COc1ccc(S(=O)(=O)Nc2cccc(C(c3c(O)c4c(oc3=O)CCCCCC4)C3CC3)c2)cc1 (stereo not drawn) [Example 275, N-[3-[Cyclopropyl(5,6,7,8,9, 10-hexahydro-4-hydroxy-2-oxo-2H-cycloocta[b]pyran-3-yl)methyl]phenyl]-4-methoxy-benzenesulfonamide] |  | 133% |  | 79.3% | 120% | 128% | 131% | 131% | 
O=c1oc2c(c(O)c1C(c1cccc(NCCc3ccccc3)c1)C1CC1)CCCCCC2 (stereo not drawn) [Example 243, 3-[Cyclopropyl-[3-[(2-phenylethyl)amino]phenyl]methyl]-5,6,7,8,9, 10-hexahydro-4-hydroxy-2H-cycloocta[b]pyran-2-one] |  |  |  |  |  |  |  |  | inhibition at 3.3 µM [5]: 24.4%; inhibition at 10 µM [6]: 44.7%; inhibition at 30 µM [7]: 54.3%
CCC(c1cccc(NS(=O)(=O)c2ccc(Cl)cc2)c1)c1c(O)c2c(oc1=O)CCCCCC2 (stereo not drawn) [Example 221, Benzenesulfonamide, 4-chloro-N-[3-[1-(5,6,7,8,9,10-hexahydro-4-hydroxy-2-oxo-2H-cycloocta[b]pyran-3-yl)propyl]phenyl]-] |  | 119% |  | 79.7% | 101% | 116% | 117% | 124% | 
O=c1oc2c(c(O)c1C(c1ccc(CNS(=O)(=O)c3ccc(F)cc3)s1)C1CC1)CCCCCC2 (stereo not drawn) [Example 393] |  |  |  |  |  |  |  |  | inhibition at 3.3 µM [5]: 37.5%; inhibition at 10 µM [6]: 66.3%; inhibition at 30 µM [7]: 89.8%
O=c1oc2c(c(O)c1C(c1cccc(NS(=O)(=O)c3ccc([N+](=O)[O-])cc3)c1)C1CC1)CCCCCC2 (stereo not drawn) [Example 273, N-[3-[Cyclopropyl(5,6,7,8,9,10-hexahydro-4-hydroxy-4-oxo-2H-cycloocta[b]pyran-3-yl)methyl]phenyl]4-nitro-benzenesulfonamide] |  | 102% |  | 68.4% | 92.3% | 95.9% | 98.2% | 108% | 
CCCC(c1ccccc1)c1c(O)c2ccc(OC)cc2oc1=O (stereo not drawn) [Example 37, Coumarin, 7-methoxy-3-(α-propylbenzyl)4-hydroxy-] | < 10% | 59.5% | 103% |  |  |  |  |  | pIC50: 5.15
O=c1oc2c(c(O)c1C(c1ccccc1)C1CC1)CCCCC2CC1CCCCO1 (stereo not drawn) [Example 190, 3-(Cyclopropylphenylmethyl)-6,7,8,9-tetrahydro4-hydroxy-9-[(tetrahydro-2H-pyran-2-yl)methyl]-cyclohepta[b]pyran-2(5H)-one] |  |  |  |  |  |  |  |  | inhibition at 1.1 µM [8]: 35.9%; inhibition at 3.3 µM [5]: 79.3%; inhibition at 10 µM [6]: 96%; inhibition at 30 µM [7]: 102%
C=CC(c1ccccc1)c1c(O)c2ccccc2oc1=O (stereo not drawn) [Example 74, 4-Hydroxy-3-(1-phenyl-2-propenyl)-coumarin] | < 10% | < 10% | 82.3% |  |  |  |  |  | 
CC(C)CC(c1cccc(NS(=O)(=O)c2cccnc2)c1)c1c(O)c2c(oc1=O)CCCCCC2 (stereo not drawn) [Example 429, 3-Pyridinesulfonamide, N-[3-[1-(5,6,7,8,9,10-hexahydro4-hydroxy-2-oxo-2H-cycloocta[b]pyran-3-yl)-3-methylbutyl]phenyl]-] |  | 107% |  | 88.6% | 98.2% | 99.9% | 103% | 108% | 
Cc1ccccc1S(=O)(=O)Nc1cccc(C(c2c(O)c3c(oc2=O)CCCCCC3)C2CC2)c1 (stereo not drawn) [Example 330, N-[3-[Cyclopropyl(5,6,7,8,9,10-hexahydro-4-hydroxy-2-oxo-2H-cycloocta[b]pyran-3-yl)methyl]phenyl]-2-methyl-benzenesulfonamide] |  | 115% |  | 47.2% | 83.8% | 106% | 109% | 106% | 
O=c1oc2c(c(O)c1C(c1cc(NS(=O)(=O)c3cccc4cccnc34)cc(NS(=O)(=O)c3cccc4cccnc34)c1)C1CC1)CCCCCC2 (stereo not drawn) [Example 485, N-[3-[Cyclopropyl-(4-hydroxy-2-oxo-5,6,7,8,9,10-hexahydro-2H-cycloocta[b]pyran-3-yl)-methyl]-5-8-quinolinesulfonylamino-phenyl]-8-quinolinesulfonamide] |  |  |  |  |  |  |  |  | inhibition at 10 µM [6]: 13.1%; inhibition at 30 µM [7]: 54.2%
CC(C)C(c1cccc(NS(=O)(=O)c2cccnc2)c1)c1c(O)c2c(oc1=O)CCCCCC2 (stereo not drawn) [Example 417, 3-Pyridinesulfonamide, N-[3-[1-(5,6,7,8,9,10-hexahydro4-hydroxy-2-oxo-2H-cycloocta[b]pyran-3-yl)-2-methylpropyl]phenyl]-] |  | 102% |  | 36.4% | 65.9% | 89.2% | 95.1% | 97.3% | 
O=c1oc2c(c(O)c1C(c1ccc(CO)o1)C1CC1)CCCCCC2 (stereo not drawn) [Example 383] |  |  |  |  |  |  |  |  | inhibition at 1.1 µM [8]: 28.9%; inhibition at 3.3 µM [5]: 73%; inhibition at 10 µM [6]: 90.2%; inhibition at 30 µM [7]: 94.6%
N#Cc1ccccc1S(=O)(=O)Nc1cccc(C(c2c(O)c3c(oc2=O)CCCCCC3)C2CC2)c1 (stereo not drawn) [Example 339, 2-Cyano-N-[3-[cyclopropyl(5,6,7,8,9,10-hexahydro-4-hydroxy-2-oxo-2H-cycloocta[b]pyran-3-yl)methyl]phenyl]-benzenesulfonamide] |  | 105% |  | 53.5% | 81.3% | 94.9% | 99.2% | 99.8% | 
O=c1oc2ccccc2c(O)c1C1CCCCc2ccccc21 (stereo not drawn) [Example 75, 4-Hydroxy-3-(5,6,7,8,9-tetrahydro-5H-benzocycloheptenyl)-coumarin] | 14.5% | 72.7% | 96.6% |  |  |  |  |  | pIC50: 5.62
CCC(c1ccccc1OC(C)=O)c1c(O)c2ccccc2oc1=O (stereo not drawn) [Example 73, 3-(1'-(2-Acetoxyphenyl)propyl)-4-hydroxycoumarin] | < 10% | 29.9% | 96.7% |  |  |  |  |  | 
CCNC(=O)Nc1cccc(C(c2c(O)c3c(oc2=O)CCCCCC3)C2CC2)c1 (stereo not drawn) [Example 223, N-[3-[Cyclopropyl(5,6,7,8,9,10-hexahydro-4-hydroxy-2-oxo-2H-cycloocta[b]pyran-3-yl)methyl]phenyl]-N'-ethyl-urea] |  | 102% |  | 11.1% | 31.3% | 62.3% | 85.7% | 101% | 
CCCC(c1cccc(C)c1)c1c(O)c2ccccc2oc1=O (stereo not drawn) [Example 97, Coumarin, 4-hydroxy-3-[1-(3-methylphenyl)butyl]-] | < 10% | 29.9% | 78.2% |  |  |  |  |  | 
O=C(O)c1cccc(S(=O)(=O)Nc2cccc(C(c3c(O)c4c(oc3=O)CCCCCC4)C3CC3)c2)c1 (stereo not drawn) [Example 292, 3-[[[3-[Cyclopropyl(5,6,7,8,9,10-hexahydro4-hydroxy-2-oxo-2H-cycloocta[b]pyran-3-yl)methyl]phenyl]amino]sulfonyl]-benzoic acid] |  | 115% |  | 74.4% | 104% | 111% | 125% | 111% | 
CCC(c1cccc(NC(=O)CCc2ccccc2)c1)c1c(O)c2ccc(OC)cc2oc1=O (stereo not drawn) [Example 57, Coumarin, 4-hydroxy-7-methoxy-3-[1-[3-[(1-oxo-3-phenylpropyl)amino]phenyl]propyl]-] | 17.6% | 94.4% | 99.3% |  |  |  |  |  | pIC50: 5.55
CCC(Cc1ccccc1)c1c(O)c2ccccc2oc1=O (stereo not drawn) [Example 144, 3-(1-Benzyl-propyl)4-hydroxy-chromen-2-one] | 25.9% | 77% | 86% |  |  |  |  |  | 
